One assay deals with T1, STING AQ (Homo sapiens, UniProt Q86WV6, G230A/H232R/R293Q).
T1 construct: expressed in transfected cells
The assay is described as follows: 293T STING digitonin reporter assay (AQ haplotype). Format: cell-based. The conditions noted are these: digitonin permeabilised 293T reporter cells. As for the experimental part:
(§1) Digitonin Assay with 293T Reporter Cells. The generation of 293T reporter cells stably expressing different STING protein haplotypes (WT, HAQ, REF, AQ, or Q) was described previously (Novotna et al, J. Med. Chem. 2019,62, 10676). The cells were seeded at a density of 250 000 cells per cm^2 into 96 well white poly(D-lysine) coated plates in 100 µL of DMEM with high glucose supplemented with 10% heat inactivated FBS. Next day, the medium was removed, and compounds were added in 3-fold serial dilutions in a digitonin buffer containing 50 mM HEPES (pH 7.0), 100 mM KCl, 3 mM MgClz, 0.1 mM DTT, 85 mM sucrose, 0.2% (w/w) BSA, 1 mM ATP, 0.1 mM GTP, and 10 µg/mL digitonin A. After 30 min incubation at 37 °C with 5% CO2, the digitonin buffer was removed, cells were washed once with 100 µL of the cultivation medium, and 100 µL of fresh medium was added to each well. The plates with cells were further incubated for 5 h at 37 °C with 5% CO2. Thereafter, 50 µL of the medium was removed, and 30 µL of Bright-Glo Luciferase Assay System reagent was added to each well. […] Nonlinear regression curve fit with standard slope was used for EC50 value calculations. The EC50 value represents CDN concentration that gives half-maximal response of firefly luciferase in the 293T reporter assay.
Background: A reporter such as luciferase makes a cellular process visible.

A further assay has as its system STING Q. The assay is described as follows: 293T STING digitonin reporter assay (Q haplotype). In kind it is cell-based, human. The following applies: digitonin permeabilised 293T reporter cells. The procedure: as §1
In assay [1] the test system is 293T WT STING reporter cells expressing TROP2. The assay is described as follows: 293T WT STING reporter cells transiently expressing TROP2, luciferase. In kind it is cell-based. The following applies: free Warhead CDN, no antibody; TROP2+ 293T reporter cells. As for the experimental part:
HCC1954 and 293T reporter cells were cultured as previously described. HCC1954 cells, which naturally express both Her2 and TROP2, were seeded into collagen-coated 96-well plates at a density of 0.5×10^6 cells/ml (100 µl/well) in RPMI medium supplemented with 10% FBS and Penicillin/Streptomycin. The following day, the medium was completely removed, and serial dilutions of mAb2-CDN and mAb5-CDN conjugates in medium were added to the wells. Levels of the STING-dependent cytokine IP10 (CXCL10) induction were determined in the medium using ProcartaPlex Immunoassays after 24 hours of incubation following the manufacturer's protocol and measured on a MagPix instrument. […] Nonlinear regression curve fitting was applied for EC50 value calculations. The EC50 value represents the concentration of the payload CDN 2.2 conjugated to anti-Her2 mAb2 or anti-TROP2 mAb5 that results in half-maximal levels of IP-10. […] A 50 µL mixture was transferred to white 96-well plates, and luminescence was measured using a TECAN reader.
EC50 values were calculated from an 8-point dose-response curve using GraphPad Prism (La Jolla, USA) with nonlinear regression curve fitting. The EC50 represents the concentration of the payload CDN 2.2 conjugated to anti-Her2 mAb2 or anti-TROP2 mAb5 that results in half-maximal levels of luminescence.

T1 sequence (Q86WV6 whole entry G230A/H232R/R293Q): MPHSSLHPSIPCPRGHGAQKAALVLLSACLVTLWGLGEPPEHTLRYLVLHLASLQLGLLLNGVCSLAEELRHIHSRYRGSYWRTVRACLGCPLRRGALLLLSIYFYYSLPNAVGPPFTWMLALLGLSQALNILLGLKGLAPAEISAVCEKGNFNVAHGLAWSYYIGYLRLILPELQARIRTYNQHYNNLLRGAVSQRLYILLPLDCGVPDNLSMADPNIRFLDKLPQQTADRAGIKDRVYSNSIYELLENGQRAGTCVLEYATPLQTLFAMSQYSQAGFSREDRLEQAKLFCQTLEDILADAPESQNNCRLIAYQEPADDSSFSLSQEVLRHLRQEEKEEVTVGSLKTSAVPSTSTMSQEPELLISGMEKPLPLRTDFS

What is called EC50 is the concentration giving half of the maximal effect. A low value points to a more potent agent. In the case of `Nc1ncnc2c1ncn2[C@@H]1O[C@@H]2OCP(=O)(S)O[C@@H]3[C@H](F)[C@@H](COP(=O)(S)OC[C@H]2[C@H]1F)O[C@H]3n1cnc2c(=O)[nH]cnc21` (single isomer, unassigned) [Compound 2.2], the EC50 was found to be 30 nM on STING AQ, 80 nM in the assay on STING Q and 700 nM in assay [1].
